# Data from PubChem BioAssay (NCI).
#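 48-hour exposure; five concentrations; linearly interpolated endpoints. Abbreviation: GI50, concentration required for 50% inhibition of growth. TGI: total growth inhibition.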
# What was measured:
# Assay in all cases: NCI anticancer screen, dose series, 48 h
# OVCAR-3 ovarian = test system: OVCAR-3 ovarian
# EKVX NSCLC = test system: EKVX NSCLC
# SNB-19 CNS = test system: SNB-19 CNS
# A498 renal = test system: A498 renal
# HL-60(TB) leukemia = test system: HL-60(TB) leukemia
# CAKI-1 renal = test system: CAKI-1 renal
# T-47D breast = test system: T-47D breast
# SW-620 colon = test system: SW-620 colon
# BT-549 breast = test system: BT-549 breast
# NCI-H522 lung = test system: NCI-H522 lung
# DU-145 prostate = test system: DU-145 prostate
# MALME-3M melanoma = test system: MALME-3M melanoma
# U251 CNS = test system: U251 CNS
# NCI/ADR-RES ovarian = test system: NCI/ADR-RES ovarian
# SK-OV-3 ovarian = test system: SK-OV-3 ovarian
# RPMI-8226 leukemia = test system: RPMI-8226 leukemia
# NCI-H226 lung = test system: NCI-H226 lung
# SK-MEL-28 melanoma = test system: SK-MEL-28 melanoma
# NCI-H23 lung = test system: NCI-H23 lung
# 786-0 renal = test system: 786-0 renal
# HCT-116 colon = test system: HCT-116 colon
# K-562 leukemia = test system: K-562 leukemia
# MCF7 breast = test system: MCF7 breast
# A549 NSCLC = test system: A549 NSCLC
# LOX IMVI melanoma = test system: LOX IMVI melanoma
# RXF 393 renal = test system: RXF 393 renal
# HCT-15 colon = test system: HCT-15 colon
# SN12C renal = test system: SN12C renal
# HS 578T breast = test system: HS 578T breast
# TK-10 renal = test system: TK-10 renal
# OVCAR-4 ovarian = test system: OVCAR-4 ovarian
# M14 melanoma = test system: M14 melanoma
# PC-3 prostate = test system: PC-3 prostate
# MDA-MB-231 breast = test system: MDA-MB-231 breast
# HOP-62 NSCLC = test system: HOP-62 NSCLC
# OVCAR-5 ovarian = test system: OVCAR-5 ovarian
# KM12 colon = test system: KM12 colon
# SR leukemia = test system: SR leukemia
# MOLT-4 leukemia = test system: MOLT-4 leukemia
# NCI-H460 lung = test system: NCI-H460 lung
# COLO 205 colon = test system: COLO 205 colon
# SNB-75 CNS = test system: SNB-75 CNS
# SK-MEL-5 melanoma = test system: SK-MEL-5 melanoma
# OVCAR-8 ovarian = test system: OVCAR-8 ovarian
# UACC-257 melanoma = test system: UACC-257 melanoma
# MDA-MB-435 = test system: MDA-MB-435
# UO-31 renal = test system: UO-31 renal
# SF-539 CNS = test system: SF-539 CNS
# HT29 colon = test system: HT29 colon
# HOP-92 NSCLC = test system: HOP-92 NSCLC
# HCC-2998 colon = test system: HCC-2998 colon
# SF-295 CNS = test system: SF-295 CNS
# SK-MEL-2 melanoma = test system: SK-MEL-2 melanoma
# UACC-62 melanoma = test system: UACC-62 melanoma
# CCRF-CEM leukemia = test system: CCRF-CEM leukemia
# IGROV1 ovarian = test system: IGROV1 ovarian
# SF-268 CNS = test system: SF-268 CNS
structure (smiles),measurement,setting,value
COc1ccc(-c2cn(-c3cccc(C(=O)/C=C/c4cc(OC)c(OC)c(OC)c4)c3)c(=O)[nH]2)cc1,GI50,OVCAR-3 ovarian,1.78 µM
same,TGI,OVCAR-3 ovarian,4.23 µM
same,GI50,EKVX NSCLC,4.2 µM
same,TGI,EKVX NSCLC,> 100 µM
same,GI50,SNB-19 CNS,4.38 µM
same,TGI,SNB-19 CNS,15.8 µM
same,GI50,A498 renal,4.21 µM
same,TGI,A498 renal,14.5 µM
same,GI50,HL-60(TB) leukemia,4.28 µM
same,TGI,HL-60(TB) leukemia,> 100 µM
same,GI50,CAKI-1 renal,3.05 µM
same,TGI,CAKI-1 renal,13.2 µM
same,GI50,T-47D breast,3.84 µM
same,TGI,T-47D breast,22.4 µM
same,GI50,SW-620 colon,0.452 µM
same,TGI,SW-620 colon,1.61 µM
same,GI50,BT-549 breast,2.59 µM
same,TGI,BT-549 breast,8.92 µM
same,GI50,NCI-H522 lung,1.85 µM
same,TGI,NCI-H522 lung,4.39 µM
same,GI50,DU-145 prostate,2.61 µM
same,TGI,DU-145 prostate,8.76 µM
same,GI50,MALME-3M melanoma,1.79 µM
same,TGI,MALME-3M melanoma,6.24 µM
same,GI50,U251 CNS,0.888 µM
same,TGI,U251 CNS,3.25 µM
same,GI50,NCI/ADR-RES ovarian,1.7 µM
same,TGI,NCI/ADR-RES ovarian,4.67 µM
same,GI50,SK-OV-3 ovarian,4.6 µM
same,TGI,SK-OV-3 ovarian,61.2 µM
same,GI50,RPMI-8226 leukemia,0.924 µM
same,TGI,RPMI-8226 leukemia,> 100 µM
same,GI50,NCI-H226 lung,35.2 µM
same,TGI,NCI-H226 lung,> 100 µM
same,GI50,SK-MEL-28 melanoma,2.03 µM
same,TGI,SK-MEL-28 melanoma,4.04 µM
same,GI50,NCI-H23 lung,1.63 µM
same,TGI,NCI-H23 lung,4.35 µM
same,GI50,786-0 renal,1.61 µM
same,TGI,786-0 renal,3.25 µM
same,GI50,HCT-116 colon,0.371 µM
same,TGI,HCT-116 colon,1.38 µM
same,GI50,K-562 leukemia,1.27 µM
same,TGI,K-562 leukemia,> 100 µM
same,GI50,MCF7 breast,0.444 µM
same,TGI,MCF7 breast,3.45 µM
same,GI50,A549 NSCLC,11.8 µM
same,TGI,A549 NSCLC,> 100 µM
same,GI50,LOX IMVI melanoma,0.725 µM
same,TGI,LOX IMVI melanoma,2.3 µM
same,GI50,RXF 393 renal,1.92 µM
same,TGI,RXF 393 renal,3.75 µM
same,GI50,HCT-15 colon,1.38 µM
same,TGI,HCT-15 colon,4.7 µM
same,GI50,SN12C renal,3.5 µM
same,TGI,SN12C renal,18.5 µM
same,GI50,HS 578T breast,3.39 µM
same,TGI,HS 578T breast,25.6 µM
same,GI50,TK-10 renal,3.04 µM
same,TGI,TK-10 renal,9.97 µM
same,GI50,OVCAR-4 ovarian,3.57 µM
same,TGI,OVCAR-4 ovarian,> 100 µM
same,GI50,M14 melanoma,1.85 µM
same,TGI,M14 melanoma,5.21 µM
same,GI50,PC-3 prostate,6.22 µM
same,TGI,PC-3 prostate,39 µM
same,GI50,MDA-MB-231 breast,5.48 µM
same,TGI,MDA-MB-231 breast,25.4 µM
same,GI50,HOP-62 NSCLC,5.91 µM
same,TGI,HOP-62 NSCLC,18.1 µM
same,GI50,OVCAR-5 ovarian,2.64 µM
same,TGI,OVCAR-5 ovarian,5.51 µM
same,GI50,KM12 colon,1.42 µM
same,TGI,KM12 colon,2.75 µM
same,GI50,SR leukemia,0.85 µM
same,TGI,SR leukemia,> 100 µM
same,GI50,MOLT-4 leukemia,3.48 µM
same,TGI,MOLT-4 leukemia,> 100 µM
same,GI50,NCI-H460 lung,1.56 µM
same,TGI,NCI-H460 lung,3.14 µM
same,GI50,COLO 205 colon,1.84 µM
same,TGI,COLO 205 colon,3.89 µM
same,GI50,SNB-75 CNS,4.59 µM
same,TGI,SNB-75 CNS,17 µM
same,GI50,SK-MEL-5 melanoma,2.03 µM
same,TGI,SK-MEL-5 melanoma,5.25 µM
same,GI50,OVCAR-8 ovarian,2.53 µM
same,TGI,OVCAR-8 ovarian,15.3 µM
same,GI50,UACC-257 melanoma,3.04 µM
same,TGI,UACC-257 melanoma,12.1 µM
same,GI50,MDA-MB-435,1.86 µM
same,TGI,MDA-MB-435,7.49 µM
same,GI50,UO-31 renal,1.91 µM
same,TGI,UO-31 renal,6.73 µM
same,GI50,SF-539 CNS,2 µM
same,TGI,SF-539 CNS,4.09 µM
same,GI50,HT29 colon,1.28 µM
same,TGI,HT29 colon,2.58 µM
same,GI50,HOP-92 NSCLC,14.9 µM
same,TGI,HOP-92 NSCLC,67.2 µM
same,GI50,HCC-2998 colon,1.64 µM
same,TGI,HCC-2998 colon,3 µM
same,GI50,SF-295 CNS,4.95 µM
same,TGI,SF-295 CNS,22 µM
same,GI50,SK-MEL-2 melanoma,2.63 µM
same,TGI,SK-MEL-2 melanoma,7.41 µM
same,GI50,UACC-62 melanoma,2.06 µM
same,TGI,UACC-62 melanoma,4.85 µM
same,GI50,CCRF-CEM leukemia,1.74 µM
same,TGI,CCRF-CEM leukemia,> 100 µM
same,GI50,IGROV1 ovarian,2.58 µM
same,TGI,IGROV1 ovarian,7.42 µM
same,GI50,SF-268 CNS,3.21 µM
same,TGI,SF-268 CNS,10.6 µM
